Assay [1] relates to HepG2 cells (glypican 3 expressed on the cell surface). Briefly: Flow cytometry, biotinylated peptides followed by SAPE, HepG2. The assay is classed as cell-based, human. As to conditions: biotinylated peptide at 100 nM followed by SAPE (1:250), on ice; compared with SK-Hep1 negative control; FIG. 2. Here is the method:
(§1) Macrocyclic peptide-conjugates in this invention were tested in cells expressing glypican 3 and analyzed by flow cytometry.
(§2) HepG2 (human hepatocellular carcinoma) and SK-HEP-1 (human hepatic adenocarcinoma) cell lines were purchased from the American Type Culture Collection (ATCC; Manassas, VA). Huh-7 (human hepatoblastoma) cell line was purchased from the Japanese Collection of Research Bioresources Cell Bank (JCRB Cell Bank, Osaka, Japan). HepG2 and SK-HEP-1 were grown in EMEM (FUJIFILM Wako Pure Chemical Corporation, 055-08975) with 10% fetal bovine serum (FBS; Thermo Fisher Scientific, 10270106) and 0.1% gentamicin (NACALAI TESQUE, 11980-14). Huh-7 was grown in DMEM (Thermo Fisher Scientific, 10567014) with 10% FBS and 0.1% gentamicin.
(§3) HepG2, SK-HEP-1 and Huh-7 cells were collected from the culture dish and stained with biotinylated peptides at 100 nM followed by Streptavidin, R-Phycoerythrin Conjugate (SAPE; Thermo Fisher Scientific, S866) (1:250). Cells were washed with phosphate-buffered saline (PBS; FUJIFILM Wako Pure Chemical Corporation, 043-29791) containing 0.5% FBS after addition of peptides or SAPE. All staining procedures were performed on ice. Samples were measured using CytoFLEX S (Beckman Coulter) and CytExpert ver2.4 software. All data were analyzed using FlowJo™ (BD Bioscience). […]

Assay [2] has as its system Huh-7 cells (glypican 3 expressed on the cell surface). Briefly: Flow cytometry, biotinylated peptides followed by SAPE, Huh-7. Particulars: biotinylated peptide at 100 nM followed by SAPE (1:250), on ice; compared with SK-Hep1 negative control; FIG. 3. The class given is cell-based, human. On the procedure: as §1, §2, §3
The target of another assay is Human Glypican3-Fc (Homo sapiens, UniProt P51654). Briefly: SPR binding to human Glypican3-Fc captured on Protein A chip, Method B-3 (5 concentrations). Particulars: SPR method B-3. On the procedure: (§4) A Protein A sensor chip (Cytiva) was inserted into a Biacore T200 (Cytiva), priming was performed three times with a running buffer: HBS-P+, pH 7.4 (Cytiva), and equilibration was carried out at a flow rate of 30 μL/min. Glypican3-Fc was allowed to react for 60 seconds at a flow rate of 10 μL/min. After capturing human Glypican3-Fc, a peptide solution prepared to 10 mM in DMSO solution was diluted with a running buffer to a final concentration of 10 μM. […] Using the above samples, peptide kinetics for Glypican3 was obtained by SPR measurement. Kinetics evaluation of Glypican3 was performed by SPR measurements at a flow rate of 10 μL/min, setting the association time to 120 seconds and the disassociation time to 600 seconds.
(§5) The obtained data by Method B-1, Method B-2, Method B-3, and Method B-4 were analyzed by follow. Single Cycle Kinetics was used as the kinetics evaluation model, and curve fitting was performed using Biacore T200 Evaluation Software Version 3.0 (Cytiva).

In another assay the target is T1, human Glypican3 (Homo sapiens, UniProt P51654).
T1 construct: purchased R&D systems 2119-GP
T1 sequence (P51654 25-554): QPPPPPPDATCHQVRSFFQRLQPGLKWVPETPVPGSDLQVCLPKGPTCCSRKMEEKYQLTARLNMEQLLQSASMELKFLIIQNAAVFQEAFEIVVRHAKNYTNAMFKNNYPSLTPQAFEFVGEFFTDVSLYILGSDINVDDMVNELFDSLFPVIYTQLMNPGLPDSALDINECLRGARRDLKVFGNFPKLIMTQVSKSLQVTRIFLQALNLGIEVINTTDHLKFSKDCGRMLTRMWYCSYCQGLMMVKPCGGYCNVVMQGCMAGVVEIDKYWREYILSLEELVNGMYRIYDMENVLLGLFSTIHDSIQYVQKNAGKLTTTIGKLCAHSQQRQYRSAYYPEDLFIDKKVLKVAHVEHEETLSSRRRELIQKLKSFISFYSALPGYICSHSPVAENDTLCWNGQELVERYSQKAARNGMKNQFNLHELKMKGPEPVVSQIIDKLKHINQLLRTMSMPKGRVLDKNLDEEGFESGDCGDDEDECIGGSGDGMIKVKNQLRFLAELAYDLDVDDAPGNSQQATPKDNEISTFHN
Briefly: SPR binding to immobilized human Glypican3, Method B-1 (CM3 chip, amine coupling). Particulars: SPR method B-1. Here is the method: Macrocyclic peptides in this invention were tested for binding to Glypican-3 protein by SPR.
A CM3 sensor chip (Cytiva) was inserted into a Biacore T200 (Cytiva), primed three times with a running buffer: HBS-P+, pH 7.4 (Cytiva), and equilibrated at a flow rate of 30 μL/min. Ligand immobilization was performed at a flow rate of 10 μL/min. 50 μL each of 60 mM EDC solution (Cytiva) and 650 mM NHS solution (Cytiva) were mixed, and then reacted at a flow rate of 10 μL/min for 420 seconds. 150 μL of 0.2 μM human Glypican3 (R&D systems, catalog number: 2119-GP) solution which was prepared by diluting with 10 mM acetic acid solution (pH 5.0), was reacted at a flow rate of 10 μL/min for 420 seconds, and Glypican3 was immobilized on the CM3 sensor chip. After immobilization, 1.0 M ethanolamine aqueous solution (Cytiva) was allowed to react for 420 seconds at a flow rate of 10 μL/min for capping. A peptide lysate prepared to 10 mM in DMSO solution was diluted with running buffer to a final concentration of 10 μM peptide lysate. After that, 5 serial dilution series (100 nM, 50 nM, 25 nM, 10 nM, 5 nM) of peptide solutions were prepared. Using the above samples, peptide kinetics for Glypican3 was obtained by SPR measurement. […]
The obtained data by Method B-1, Method B-2, Method B-3, and Method B-4 were analyzed by follow. […]

The target in assay [3] is Human Glypican3-Fc (ACRO Biosystems, GP3-H5258) (human) (UniProt P51654). Briefly: SPR Biacore T200, Method B-3: Glypican3-Fc captured on Protein A chip, single cycle kinetics.
Human Glypican3-Fc (ACRO Biosystems, GP3-H5258) (human), sequence (P51654 25-559 limits assumed): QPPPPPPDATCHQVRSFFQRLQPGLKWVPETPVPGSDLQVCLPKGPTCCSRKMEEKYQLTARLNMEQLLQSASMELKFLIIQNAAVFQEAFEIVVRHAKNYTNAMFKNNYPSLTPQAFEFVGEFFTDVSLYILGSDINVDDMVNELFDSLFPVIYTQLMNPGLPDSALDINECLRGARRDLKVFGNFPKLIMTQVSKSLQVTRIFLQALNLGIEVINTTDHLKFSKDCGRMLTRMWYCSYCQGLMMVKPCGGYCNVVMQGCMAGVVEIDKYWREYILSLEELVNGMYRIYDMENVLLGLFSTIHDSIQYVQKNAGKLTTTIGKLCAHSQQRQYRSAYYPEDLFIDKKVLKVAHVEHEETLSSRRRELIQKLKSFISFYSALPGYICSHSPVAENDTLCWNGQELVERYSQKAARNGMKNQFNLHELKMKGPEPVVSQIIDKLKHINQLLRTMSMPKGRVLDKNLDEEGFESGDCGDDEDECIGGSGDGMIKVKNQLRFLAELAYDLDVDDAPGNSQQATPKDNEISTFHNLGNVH
For assay [4], the target named is T2, Human Glypican3-Fc (ACRO Biosystems, GP3-H5258) (human, UniProt P51654 25-559).
T2 construct: Bought Fc fusion, captured by anti-human IgG (Fc) antibody (Method B-2) or on a Protein A chip (Methods B-3, B-4); Supplier and catalogue number are printed only in Method B-2; B-3 and B-4 say only Glypican3-Fc / human Glypican3-Fc; not shown: Fc part of the bought fusion protein
T2 sequence (P51654 25-559 limits assumed): as above
Described as above. On the procedure: as §4, §5

*1 amine or outer side, *2 acyl side, *3 side chain or, on linkers, in order; H or OH if unused. Where a SMILES comes first, the peptide text is derived from it. Bridges are numbered along the chain shown (N, C = ends). [ ]: non-standard residue; d: D form. The star is where a group is joined. ξ: configuration not given here. MeDapCOpipzaa = 3-(4-(carboxymethyl)piperazine-1-carboxamido)-2-(methylamino)propanoic acid, CN([C@@H](CNC(=O)N1CCN(CC(=O)[*:3])CC1)C(=O)[*:2])[*:1]; F4aao = (S)-2-amino-3-(4-(carboxymethoxy)phenyl)propanoic acid, O=C([C@H](Cc1ccc(OCC(=O)[*:3])cc1)N[*:1])[*:2]; MeHseMe = 4-methoxy-2-(methylamino)butanoic acid, COCC[C@@H](C(=O)[*:2])N(C)[*:1]; Phe(4-(1-Me-pyrazol-4-yl)) = Cn1cc(-c2ccc(C[C@H](N)C(=O)O)cc2)cn1; Biotin‑PEG12c = biotin-PEG12c group on the lysine side chain; TMe = O-methyl threonine, CO[C@H](C)[C@H](N[*:1])C(=O)[*:2]; NMeAla(isoquinolin-7-yl) = CN[C@@H](Cc1ccc2ccncc2c1)C(=O)O; 3Pal(6-Ph) = N[C@@H](Cc1ccc(-c2ccccc2)nc1)C(=O)O; Biotin = O=C1N[C@H]2[C@H](CS[C@H]2CCCCC(=O)*)N1; PEG10 = NCCOCCOCCOCCOCCOCCOCCOCCOCCOCCOCCC(=O)O; Phe(4-COOH) = N[C@@H](Cc1ccc(C(=O)O)cc1)C(=O)O; NMe2Nal = CN[C@@H](Cc1ccc2ccccc2c1)C(=O)O; AEF = NCCOc1ccc(C[C@H](N)C(=O)O)cc1; NMeI = CC[C@H](C)[C@H](NC)C(=O)O; NMeQ = CN[C@@H](CCC(N)=O)C(=O)O; NMeK = CN[C@@H](CCCCN)C(=O)O; NMeC = CN[C@@H](CS)C(=O)O; ξNMeC = CNC(CS)C(=O)O Where only a bound is given, the exact number is not on record here.

In the case of `CC[C@H](C)[C@@H]1NC(=O)[C@H](Cc2ccc(C(=O)O)cc2)NC(=O)[C@H](CCC(N)=O)N(C)C(=O)[C@H](CC(=O)O)NC(=O)[C@H]([C@@H](C)CC)N(C)C(=O)[C@H](CCCCNC(C)=O)N(C)C(=O)CSCC(C(=O)NCC(=O)NCCOCCOCCOCCOCCOCCOCCOCCOCCOCCOCCC(=O)N[C@@H](CCCCNC(=O)CCCC[C@@H]2SC[C@@H]3NC(=O)N[C@@H]32)C(N)=O)N(C)C(=O)[C@H](Cc2ccc(-c3ccccc3)nc2)NC(=O)CNC(=O)[C@H](Cc2ccc3ccncc3c2)N(C)C(=O)[C@H](Cc2ccc(O)cc2)NC(=O)[C@H]([C@@H](C)CC)NC1=O` (some centres unmarked) [PLB-60] ({CH2CO}-[NMeK](Ac)[NMeI]D[NMeQ][Phe(4-COOH)]IIY[NMeAla(isoquinolin-7-yl)]G[3Pal(6-Ph)][ξNMeC]G[PEG10]K(Biotin)-NH2; thioether N-12), in assay [1], the “comparative staining of HepG2 by flow cytometry” value was “specific binding to both glypican expressing cells and SAPE”. Besides, in assay [2], the “comparative staining of Huh-7 by flow cytometry” value was “specific binding to both glypican expressing cells and SAPE”.
Molecule `CC[C@H](C)[C@@H]1NC(=O)[C@H]([C@@H](C)OC)NC(=O)[C@H](Cc2ccc(C(=O)O)cc2)NC(=O)[C@H](CNC(=O)N2CCN(CC(=O)O)CC2)N(C)C(=O)[C@H](CC(=O)O)NC(=O)[C@H](CCOC)N(C)C(=O)[C@H](CCCCNC(=O)N2CCN(CC(=O)O)CC2)N(C)C(=O)CSC[C@@H](C(N)=O)N(C)C(=O)[C@H](Cc2ccc(-c3ccccc3)nc2)NC(=O)CNC(=O)[C@H](Cc2ccc3ccncc3c2)N(C)C(=O)[C@H](Cc2ccc(OCCN)cc2)NC1=O` [compound 55] came in with a Kd at Human Glypican3-Fc of 1.8 nM.
The same measure, in the same setting: next, `CC[N+]1=C(/C=C/C=C/C=C2/N(CCCCCC(=O)NCCCC[C@H](NC(=O)CCOCCOCCOCCOCCOCCOCCOCCOCCOCCOCCNC(=O)CNC(C)=O)C(N)=O)c3ccc(S(=O)(=O)O)cc3C2(C)C)C(C)(C)c2cc(S(=O)(=O)[O-])ccc21` [C-M-64, 2-[(1E,3E)-5-[(2E)-1-(5-{[(5)-5-carbamoyl-5-[1-(2-acetamidoacetamido)-3,6,9,12,15,18,21,24,27,30-decaoxatritriacontan-33-amido]pentyl]carbamoyl}pentyl)-3,3-dimethyl-5-sulfo-2,3-dihydro-1H-indol-2-ylidene]penta-1,3-dien-1-yl]-1-ethyl-3,3-dimethyl-3H-indol-1-ium-5-sulfonate, reference compound]: less than 1 nM.
At human Glypican3, `CC[C@H](C)[C@@H]1NC(=O)[C@H]([C@@H](C)OC)NC(=O)[C@H](Cc2ccc(C(=O)O)cc2)NC(=O)[C@H](CCC(N)=O)N(C)C(=O)[C@H](CC(=O)O)NC(=O)[C@H](CCC(N)=O)N(C)C(=O)[C@H](CCC(N)=O)N(C)C(=O)CSC[C@@H](C(N)=O)N(C)C(=O)[C@H](Cc2ccc(-c3cnn(C)c3)cc2)NC(=O)CNC(=O)[C@H](Cc2ccc3ccccc3c2)N(C)C(=O)[C@H](Cc2ccc(C(=O)O)cc2)NC1=O` [compound 18] ({CH2CO}-[NMeQ][NMeQ]D[NMeQ][Phe(4-COOH)]T(Me)I[Phe(4-COOH)][NMe2Nal]G[Phe(4-(1-Me-pyrazol-4-yl))][NMeC]-NH2; thioether N-12) gave a dissociation constant Kd of 1.8 nM.
On to {CH2CO}-[MeDapCOpipzaa][MeHseMe]D[MeDapCOpipzaa][Phe(4-COOH)][TMe]I[AEF][NMe2Nal]G[3Pal(6-Ph)][NMeC]-NH2 (thioether N-12) [macrocyclic peptide of SEQ ID NO: 50], for which the dissociation constant Kd in assay [3] worked out at 0.3 nM.
{CH2CO}-[NMeK](Biotin‑PEG12c)[NMeI]D[NMeQ][Phe(4-COOH)]II[F4aao][NMeAla(isoquinolin-7-yl)]G[3Pal(6-Ph)][NMeC]-NH2 (thioether N-12) [macrocyclic peptide-biotin conjugate PLB-64 (SEQ ID NO: 76)] displayed a Kd in assay [4] of 1.04 nM.
{CH2CO}-[MeDapCOpipzaa][MeHseMe]D[MeDapCOpipzaa][Phe(4-COOH)][TMe]I[AEF][NMeAla(isoquinolin-7-yl)]G[3Pal(6-Ph)][NMeC]-NH2 (thioether N-12) [macrocyclic peptide of SEQ ID NO: 54] registered a dissociation constant (Kd) in assay [3] of 1 nM.

These data come from patent publication US20260248930A1, “PEPTIDE COMPOSITIONS TARGETING GLYPICAN-3 AND USES THEREOF” (PeptiDream Inc., priority 2023, published 2026).
